According to patent US8314150B2, “Kinase protein binding inhibitors” (priority 2008, dated 2012):

Columns and labels:
[1] = tested on: resistant breast cancer cells with overexpressed Src and activated FAK; assay: Cell viability in resistant breast cancer cells; format: cell-based; details: not shown
Protocol: (§1) Cell Viability Assay—The Cells were treated with peptides for 24 hours at different peptide concentrations. The 3-(4,5-dimethylthiazol-2-yl)-5-(3-carboxymethoxyphenyl)-2-(4-sulfophenyl)-2H-tetrazolium compound from Promega Viability kit (Madison, Ill.) was added, and the cells were incubated at 37° C. for 1-2 hours. The optical density on 96-plate was analyzed with a microplate reader at 490 nm to determine cell viability. In addition, cells were stained with trypan blue after 24 hours of treatment with Y15 and the percent of cells that stained positive were determined with a hemacytometer. […] Then 2% SDS was added to the dried plated and OD at 590 nm was measured for detecting cell adhesion. […] Protein concentrations were determined using a Bio-Rad Kit. The boiled samples were loaded on Ready SDS-10% PAGE gels (Bio Rad, Inc) and used for Western blot analysis with the protein-specific antibody. […] Detachment Assay—Cells were plated with and without inhibitors for 24 hours, and detached and attached cells were counted in a hemocytometer. We calculated the percent of detachment by dividing the number of detached cells by the total number of cells. The percent of detached cells was calculated in three independent experiments. […] For each experiment 300 cells per treatment were counted. […]

[2] = tested on: Y397 phosphorylation of FAK; assay: Western blotting with Y397 FAK antibody, Panc-1 cells; format: cell-based, human; details: 24 hours
Protocol: Cell Viability Assay—The Cells were treated with peptides for 24 hours at different peptide concentrations. The 3-(4,5-dimethylthiazol-2-yl)-5-(3-carboxymethoxyphenyl)-2-(4-sulfophenyl)-2H-tetrazolium compound from Promega Viability kit (Madison, Ill.) was added, and the cells were incubated at 37° C. for 1-2 hours. The optical density on 96-plate was analyzed with a microplate reader at 490 nm to determine cell viability. In addition, cells were stained with trypan blue after 24 hours of treatment with Y15 and the percent of cells that stained positive were determined with a hemacytometer. Cell adhesion assay—The poly-L-Lysine or Collagen (5 μg/ml) coated 96-well plates were blocked with the blocking buffer (medium with 0.5% BSA) for 1 hour at 37 C. The cells were pre-treated with drugs for 3 hours and plated for adhesion at 4×10^5 cells. Cells were incubated at 37 C for 1 hour, fixed in 3.7% formaldehyde, washed in 0.1% BSA in PBS and stained with crystal violet (5 mg/ml in 2% ethanol) for 10 minutes. Then 2% SDS was added to the dried plated and OD at 590 nm was measured for detecting cell adhesion. […] Protein concentrations were determined using a Bio-Rad Kit. The boiled samples were loaded on Ready SDS-10% PAGE gels (Bio Rad, Inc) and used for Western blot analysis with the protein-specific antibody. […] Detachment Assay—Cells were plated with and without inhibitors for 24 hours, and detached and attached cells were counted in a hemocytometer. We calculated the percent of detachment by dividing the number of detached cells by the total number of cells. The percent of detached cells was calculated in three independent experiments. […] The percent of apoptotic cells was calculated as a ratio of apoptotic detached cells divided by the total number of cells in three independent experiments in several fields with the fluorescent microscope. For each experiment 300 cells per treatment were counted. […]

EGFR = molecular target: T1, EGFR (Homo sapiens, UniProt P00533); assay: KinaseProfiler screening; format: biochemical; details: 1 μM, 10 μM ATP
T1 construct: purchased Millipore KinaseProfiler Service (Upstate Biotechnology, Inc)
Protocol: (§2) Cell Viability Assay—The Cells were treated with peptides for 24 hours at different peptide concentrations. The 3-(4,5-dimethylthiazol-2-yl)-5-(3-carboxymethoxyphenyl)-2-(4-sulfophenyl)-2H-tetrazolium compound from Promega Viability kit (Madison, Ill.) was added, and the cells were incubated at 37° C. for 1-2 hours. The optical density on 96-plate was analyzed with a microplate reader at 490 nm to determine cell viability. In addition, cells were stained with trypan blue after 24 hours of treatment with Y15 and the percent of cells that stained positive were determined with a hemacytometer. Cell adhesion assay—The poly-L-Lysine or Collagen (5 μg/ml) coated 96-well plates were blocked with the blocking buffer (medium with 0.5% BSA) for 1 hour at 37 C. The cells were pre-treated with drugs for 3 hours and plated for adhesion at 4×10^5 cells. Cells were incubated at 37 C for 1 hour, fixed in 3.7% formaldehyde, washed in 0.1% BSA in PBS and stained with crystal violet (5 mg/ml in 2% ethanol) for 10 minutes. Then 2% SDS was added to the dried plated and OD at 590 nm was measured for detecting cell adhesion. Western Blotting—Cells or homogenized tumor samples were washed twice with cold 1×PBS and lysed on ice for 30 minutes in a buffer containing: 50 mM Tris-HCl (pH 7.5), 150 mM NaCl, 1% Triton-X, 0.5% NaDOC, 0.1% SDS, 5 mM EDTA, 50 mM NaF, 1 mM NaVO3, 10% glycerol and protease inhibitors: 10 μg/ml leupeptin, 10 μg/ml PMSF and 1 μg/ml aprotinin. The lysates were cleared by centrifugation at 10,000 rpm for 30 minutes at 4° C. Protein concentrations were determined using a Bio-Rad Kit. The boiled samples were loaded on Ready SDS-10% PAGE gels (Bio Rad, Inc) and used for Western blot analysis with the protein-specific antibody. Immunoblots were developed with chemiluminescence Renaissance reagent (NEN Life Science Products, Inc). Immunoprecipitation. Immunoprecipitation was performed according to the standard protocol. In brief, the pre-cleared lysates with equal amount of protein were incubated with 1 μg of primary antibody and 30 μl A/G agarose beads overnight at 4° C. The precipitates were washed with lysis buffer three times and re-suspended in 2× Laemmli buffer. The boiled samples were used for Western blotting, as described above. Detachment Assay—Cells were plated with and without inhibitors for 24 hours, and detached and attached cells were counted in a hemocytometer. We calculated the percent of detachment by dividing the number of detached cells by the total number of cells. The percent of detached cells was calculated in three independent experiments. Apoptosis Assay. Detached cells were collected and fixed in 3.7% formaldehyde in 1×PBS solution for the apoptosis assay. Detection of apoptosis was done with Hoechst 33342 staining. The percent of apoptotic cells was calculated as a ratio of apoptotic detached cells divided by the total number of cells in three independent experiments in several fields with the fluorescent microscope. For each experiment 300 cells per treatment were counted. In vitro Kinase Assay—10 μCi of [γ-^32P]-ATP in a kinase buffer (20 mM HEPES, pH 7.4, 5 mM MgCl2, 5 mM MnCl2, 0.1 mM Na3VO4 with 0.1 μg of purified FAK protein were incubated in a kinase buffer with 10 μCi of [γ-^32P]-ATP. The kinase reaction was performed for 5 minutes at room temperature and stopped by addition of 2× Laemmli buffer. Proteins were separated on a Ready SDS-10% PAGE gel, and the phosphorylated enolase was visualized by autoradiography. KinaseProfiler screening—Kinase specificity screening was performed with KinaseProfiler™ Service (Millipore) available on http://www.millipore.com/drugdiscovery/dd3/KinaseProfiler. The screening was performed with 1 μM Y15, 10 μM ATP and kinase substrates on 9 recombinant kinases according to Millipore protocol. Tumor Growth in Nude Mice—Female nude mice, 6 weeks old, were purchased from Harlan Laboratory. […]

IGF-1 = molecular target: T2, IGF-1 (Homo sapiens, UniProt P08069); assay: KinaseProfiler screening; format: biochemical; details: 1 μM, 10 μM ATP
T2 construct: purchased Millipore KinaseProfiler Service (Upstate Biotechnology, Inc)
Protocol: as §2

Met = molecular target: T3, Met (Homo sapiens, UniProt P08581); assay: KinaseProfiler screening; format: biochemical; details: 1 μM, 10 μM ATP
T3 construct: purchased Millipore KinaseProfiler Service (Upstate Biotechnology, Inc)
T3 sequence (P08581 25-1390): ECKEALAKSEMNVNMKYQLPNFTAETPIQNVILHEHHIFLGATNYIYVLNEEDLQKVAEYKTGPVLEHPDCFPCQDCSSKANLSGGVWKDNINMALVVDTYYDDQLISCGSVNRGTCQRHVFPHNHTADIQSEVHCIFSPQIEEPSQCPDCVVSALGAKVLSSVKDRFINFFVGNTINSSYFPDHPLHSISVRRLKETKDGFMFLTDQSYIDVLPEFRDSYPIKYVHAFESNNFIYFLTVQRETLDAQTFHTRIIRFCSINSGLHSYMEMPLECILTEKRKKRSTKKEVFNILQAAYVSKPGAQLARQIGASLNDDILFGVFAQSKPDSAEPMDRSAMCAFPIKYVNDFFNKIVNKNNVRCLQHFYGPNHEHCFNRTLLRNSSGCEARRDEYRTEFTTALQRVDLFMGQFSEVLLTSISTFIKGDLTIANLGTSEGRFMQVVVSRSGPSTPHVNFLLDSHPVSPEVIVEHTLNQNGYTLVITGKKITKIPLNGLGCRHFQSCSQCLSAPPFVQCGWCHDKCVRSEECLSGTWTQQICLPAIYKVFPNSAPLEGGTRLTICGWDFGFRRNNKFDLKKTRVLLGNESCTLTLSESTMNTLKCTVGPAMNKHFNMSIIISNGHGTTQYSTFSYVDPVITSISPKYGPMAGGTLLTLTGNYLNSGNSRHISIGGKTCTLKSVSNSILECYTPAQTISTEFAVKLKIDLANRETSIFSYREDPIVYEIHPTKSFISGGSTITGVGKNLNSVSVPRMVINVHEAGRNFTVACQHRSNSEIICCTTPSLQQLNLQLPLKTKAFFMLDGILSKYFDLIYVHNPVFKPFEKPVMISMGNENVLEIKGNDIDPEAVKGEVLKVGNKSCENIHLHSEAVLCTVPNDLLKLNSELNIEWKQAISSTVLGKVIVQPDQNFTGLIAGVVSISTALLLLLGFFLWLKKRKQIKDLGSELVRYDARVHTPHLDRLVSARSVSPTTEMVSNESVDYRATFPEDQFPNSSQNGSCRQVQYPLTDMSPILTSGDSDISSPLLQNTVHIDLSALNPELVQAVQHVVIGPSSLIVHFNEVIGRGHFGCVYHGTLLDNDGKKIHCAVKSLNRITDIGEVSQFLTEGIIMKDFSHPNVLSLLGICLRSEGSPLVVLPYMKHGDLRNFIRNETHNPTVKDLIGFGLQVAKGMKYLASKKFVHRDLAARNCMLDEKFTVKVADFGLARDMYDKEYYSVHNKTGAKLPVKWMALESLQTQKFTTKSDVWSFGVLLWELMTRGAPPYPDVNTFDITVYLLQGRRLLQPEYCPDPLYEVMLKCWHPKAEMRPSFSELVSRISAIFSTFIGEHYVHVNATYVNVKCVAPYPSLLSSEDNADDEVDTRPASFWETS
Protocol: as §2

PDGFR-α = molecular target: T4, PDGFR-α (Homo sapiens, UniProt P16234); assay: KinaseProfiler screening; format: biochemical; details: 1 μM, 10 μM ATP
T4 construct: purchased Millipore KinaseProfiler Service (Upstate Biotechnology, Inc)
Protocol: as §2

PI3K (p110δ/p85α) = molecular target: T5, PI3K (p110δ/p85α) (Homo sapiens, UniProt O00329); assay: KinaseProfiler screening; format: biochemical; details: 1 μM, 10 μM ATP
T5 construct: purchased Millipore KinaseProfiler Service (Upstate Biotechnology, Inc)
Protocol: as §2

Pyk2 = molecular target: T6, Pyk2 (Homo sapiens, UniProt Q14289); assay: KinaseProfiler screening; format: biochemical; details: 1 μM, 10 μM ATP
T6 construct: purchased Millipore KinaseProfiler Service (Upstate Biotechnology, Inc)
T6 sequence (Q14289 whole entry): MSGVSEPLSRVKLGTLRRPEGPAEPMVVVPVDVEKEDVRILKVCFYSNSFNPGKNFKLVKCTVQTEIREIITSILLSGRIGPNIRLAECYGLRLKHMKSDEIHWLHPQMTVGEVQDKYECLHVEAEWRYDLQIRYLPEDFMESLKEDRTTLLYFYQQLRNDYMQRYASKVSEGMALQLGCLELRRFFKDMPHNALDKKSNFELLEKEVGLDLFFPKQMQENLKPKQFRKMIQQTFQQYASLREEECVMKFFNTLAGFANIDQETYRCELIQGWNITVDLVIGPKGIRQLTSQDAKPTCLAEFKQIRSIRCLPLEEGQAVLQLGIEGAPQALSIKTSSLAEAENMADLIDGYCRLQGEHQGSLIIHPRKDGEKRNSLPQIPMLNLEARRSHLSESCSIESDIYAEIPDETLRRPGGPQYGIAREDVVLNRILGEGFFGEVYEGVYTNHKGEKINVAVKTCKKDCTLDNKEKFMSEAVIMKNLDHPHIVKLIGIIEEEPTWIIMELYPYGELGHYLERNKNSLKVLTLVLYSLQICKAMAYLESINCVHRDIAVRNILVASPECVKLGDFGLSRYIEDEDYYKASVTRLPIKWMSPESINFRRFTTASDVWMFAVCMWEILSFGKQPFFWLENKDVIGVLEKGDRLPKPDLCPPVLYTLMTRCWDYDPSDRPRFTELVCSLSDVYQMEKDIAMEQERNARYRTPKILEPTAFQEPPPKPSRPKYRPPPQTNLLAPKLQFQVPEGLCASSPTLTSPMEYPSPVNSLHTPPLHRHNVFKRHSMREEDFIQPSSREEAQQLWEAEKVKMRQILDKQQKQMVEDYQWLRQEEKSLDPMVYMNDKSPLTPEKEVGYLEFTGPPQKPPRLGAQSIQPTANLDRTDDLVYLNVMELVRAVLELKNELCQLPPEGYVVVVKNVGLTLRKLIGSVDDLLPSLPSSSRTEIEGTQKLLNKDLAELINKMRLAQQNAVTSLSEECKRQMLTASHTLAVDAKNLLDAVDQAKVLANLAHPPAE
Protocol: as §2

VEGFR-3 = molecular target: T7, VEGFR-3 (Homo sapiens, UniProt P35916); assay: KinaseProfiler screening; format: biochemical; details: 1 μM, 10 μM ATP
T7 construct: purchased Millipore KinaseProfiler Service (Upstate Biotechnology, Inc)
T7 sequence (P35916 25-1363): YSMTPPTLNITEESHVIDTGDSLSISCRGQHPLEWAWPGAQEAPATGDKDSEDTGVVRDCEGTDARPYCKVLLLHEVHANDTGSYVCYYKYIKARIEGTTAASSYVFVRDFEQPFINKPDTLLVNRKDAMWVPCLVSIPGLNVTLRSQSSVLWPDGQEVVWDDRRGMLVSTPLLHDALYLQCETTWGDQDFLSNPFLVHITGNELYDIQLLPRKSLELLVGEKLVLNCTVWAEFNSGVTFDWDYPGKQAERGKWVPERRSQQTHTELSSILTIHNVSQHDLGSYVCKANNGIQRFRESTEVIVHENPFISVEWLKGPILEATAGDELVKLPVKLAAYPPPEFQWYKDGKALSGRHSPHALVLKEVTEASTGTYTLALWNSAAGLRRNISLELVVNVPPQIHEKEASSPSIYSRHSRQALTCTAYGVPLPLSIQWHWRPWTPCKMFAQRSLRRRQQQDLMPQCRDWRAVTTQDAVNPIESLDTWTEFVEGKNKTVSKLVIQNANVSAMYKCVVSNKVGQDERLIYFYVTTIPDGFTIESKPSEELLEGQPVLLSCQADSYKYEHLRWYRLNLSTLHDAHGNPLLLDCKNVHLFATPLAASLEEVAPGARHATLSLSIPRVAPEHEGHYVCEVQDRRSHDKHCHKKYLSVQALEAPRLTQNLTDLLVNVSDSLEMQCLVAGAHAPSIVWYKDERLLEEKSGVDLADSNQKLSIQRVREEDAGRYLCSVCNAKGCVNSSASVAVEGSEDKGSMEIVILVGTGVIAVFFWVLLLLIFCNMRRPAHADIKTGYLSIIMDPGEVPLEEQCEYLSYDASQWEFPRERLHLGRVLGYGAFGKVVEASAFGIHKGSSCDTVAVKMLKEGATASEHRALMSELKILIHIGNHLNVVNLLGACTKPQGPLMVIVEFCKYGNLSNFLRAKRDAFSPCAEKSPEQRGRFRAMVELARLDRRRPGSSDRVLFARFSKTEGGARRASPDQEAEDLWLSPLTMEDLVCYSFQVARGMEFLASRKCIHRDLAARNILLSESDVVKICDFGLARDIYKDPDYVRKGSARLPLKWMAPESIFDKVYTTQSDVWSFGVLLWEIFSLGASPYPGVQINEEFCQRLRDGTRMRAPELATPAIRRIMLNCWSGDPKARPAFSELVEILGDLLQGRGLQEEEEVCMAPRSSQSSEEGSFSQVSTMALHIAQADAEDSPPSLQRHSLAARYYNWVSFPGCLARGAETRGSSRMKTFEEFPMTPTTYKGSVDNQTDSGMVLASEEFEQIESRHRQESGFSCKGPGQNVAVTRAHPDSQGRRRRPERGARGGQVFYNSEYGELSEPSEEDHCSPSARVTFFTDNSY
Protocol: as §2

c-RAF = molecular target: T8, c-RAF (Homo sapiens, UniProt P04049); assay: KinaseProfiler screening; format: biochemical; details: 1 μM, 10 μM ATP
T8 construct: purchased Millipore KinaseProfiler Service (Upstate Biotechnology, Inc)
T8 sequence (P04049 whole entry): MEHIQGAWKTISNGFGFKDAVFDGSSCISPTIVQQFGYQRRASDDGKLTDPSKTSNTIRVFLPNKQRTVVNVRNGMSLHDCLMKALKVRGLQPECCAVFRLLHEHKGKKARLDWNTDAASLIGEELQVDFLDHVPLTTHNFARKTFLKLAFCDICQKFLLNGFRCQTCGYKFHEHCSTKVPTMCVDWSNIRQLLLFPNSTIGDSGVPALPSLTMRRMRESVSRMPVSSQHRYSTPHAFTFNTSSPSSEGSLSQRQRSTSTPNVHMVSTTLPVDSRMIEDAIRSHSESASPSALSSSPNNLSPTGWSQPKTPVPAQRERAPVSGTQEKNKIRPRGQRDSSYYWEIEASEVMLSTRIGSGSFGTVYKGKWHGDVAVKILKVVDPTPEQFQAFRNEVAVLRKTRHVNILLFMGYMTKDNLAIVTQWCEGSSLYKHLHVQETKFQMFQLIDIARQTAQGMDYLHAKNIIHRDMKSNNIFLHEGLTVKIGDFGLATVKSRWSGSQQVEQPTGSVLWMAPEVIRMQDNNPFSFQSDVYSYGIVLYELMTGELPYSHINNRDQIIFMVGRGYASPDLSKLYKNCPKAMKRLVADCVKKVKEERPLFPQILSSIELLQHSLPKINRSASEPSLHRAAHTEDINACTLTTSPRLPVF
Protocol: as §2

c-Src = molecular target: T9, c-Src (Homo sapiens, UniProt P12931); assay: KinaseProfiler screening; format: biochemical; details: 1 μM, 10 μM ATP
T9 construct: purchased Millipore KinaseProfiler Service (Upstate Biotechnology, Inc)
T9 sequence (P12931 whole entry): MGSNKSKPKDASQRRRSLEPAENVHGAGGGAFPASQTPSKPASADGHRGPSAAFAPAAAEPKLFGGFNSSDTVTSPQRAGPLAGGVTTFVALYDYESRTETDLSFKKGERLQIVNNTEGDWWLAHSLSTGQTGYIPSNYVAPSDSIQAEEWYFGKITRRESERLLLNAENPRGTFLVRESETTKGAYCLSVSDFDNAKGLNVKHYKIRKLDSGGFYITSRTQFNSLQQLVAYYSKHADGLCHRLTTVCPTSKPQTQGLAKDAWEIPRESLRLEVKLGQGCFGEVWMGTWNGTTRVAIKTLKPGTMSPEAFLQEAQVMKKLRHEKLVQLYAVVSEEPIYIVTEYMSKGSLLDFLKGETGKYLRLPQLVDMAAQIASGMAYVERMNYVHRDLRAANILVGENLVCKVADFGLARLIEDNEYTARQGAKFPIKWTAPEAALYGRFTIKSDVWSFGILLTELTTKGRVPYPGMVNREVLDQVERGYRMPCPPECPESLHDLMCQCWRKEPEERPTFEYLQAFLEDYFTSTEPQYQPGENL
Protocol: as §2

[3] = tested on: normal breast epithelial cells (MCF10A); assay: Trypan blue staining, normal breast epithelial cells; format: cell-based, human; details: doses up to 10 μM
Protocol: as §1

In the case of `Cl.Cl.Cl.Cl.Nc1cc(N)c(N)cc1N` [Y15, 1,2,4,5-benzenetetraamine tetrahydrochloride], the cell viability [1] is reported as “effectively blocked cell viability”, the “inhibition of Y397 phosphorylation compared with TAE226” value ([2]; 100 μM) is reported as “same or better inhibition as TAE226” and the “dose from which Y397 phosphorylation of FAK was inhibited” value [2] is reported as 0.1 µM. For the same compound, the “total FAK level” value ([2]; higher doses) was “down regulated”, the kinase activity (EGFR) was “did not significantly decrease kinase activity” and the kinase activity (IGF-1) was “did not significantly decrease kinase activity”. The kinase activity (Met) was “did not significantly decrease kinase activity”, the kinase activity (PDGFR-α) was “did not significantly decrease kinase activity” and the kinase activity (PI3K (p110δ/p85α)) was “did not significantly decrease kinase activity”. For the same compound, the kinase activity (Pyk2) was “did not significantly decrease kinase activity”, the kinase activity (VEGFR-3) was “did not significantly decrease kinase activity” and the kinase activity (c-RAF) was “did not significantly decrease kinase activity”. For the same compound, the kinase activity (c-Src) was “did not significantly decrease kinase activity” and the “cell viability (trypan blue)” value [3] was “no decrease in cell viability”.
